Laboratory results from ChEMBL document CHEMBL5729261, “AMPK activators” (2022).

Molecular target: AMP-activated protein kinase (AMPK) alpha-1/beta-1/gamma-1 (Homo sapiens, UniProt P54619+Q13131+Q9Y478)
Assay: In Vitro pAMPK1 Kinase Activation Assay: Compound effect on AMPK enzyme activation was determined in a cell-free format with a 12-point concentration curve. The ADP-Glo detection system was used to determine phosphorylation of a SAMS peptide substrate. Recombinant AMPK α1/β1/γ1 complex was pre-activated by phosphorylation with CAMKK2 followed by incubated with compound for 15 minutes prior to the SAMS phosphorylation reaction. Activity curves and EC50 values were fitted by interpolation to an ATP:ADP standard curve as indicated by the ADP-Glo manufacturer using Prism software.
Assay type: protein-complex assay

Chain of AMP-activated protein kinase (AMPK) alpha-1/beta-1/gamma-1 (P54619 whole entry): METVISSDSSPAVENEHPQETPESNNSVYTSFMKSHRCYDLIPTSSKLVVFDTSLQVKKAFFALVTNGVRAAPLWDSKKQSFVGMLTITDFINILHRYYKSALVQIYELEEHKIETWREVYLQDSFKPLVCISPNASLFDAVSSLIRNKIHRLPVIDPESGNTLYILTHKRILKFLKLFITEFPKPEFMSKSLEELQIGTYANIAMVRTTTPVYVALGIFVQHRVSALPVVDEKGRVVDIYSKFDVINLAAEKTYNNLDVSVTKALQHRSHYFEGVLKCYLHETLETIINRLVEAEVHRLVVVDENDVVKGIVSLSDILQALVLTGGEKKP
Chain of AMP-activated protein kinase (AMPK) alpha-1/beta-1/gamma-1 (Q9Y478 whole entry): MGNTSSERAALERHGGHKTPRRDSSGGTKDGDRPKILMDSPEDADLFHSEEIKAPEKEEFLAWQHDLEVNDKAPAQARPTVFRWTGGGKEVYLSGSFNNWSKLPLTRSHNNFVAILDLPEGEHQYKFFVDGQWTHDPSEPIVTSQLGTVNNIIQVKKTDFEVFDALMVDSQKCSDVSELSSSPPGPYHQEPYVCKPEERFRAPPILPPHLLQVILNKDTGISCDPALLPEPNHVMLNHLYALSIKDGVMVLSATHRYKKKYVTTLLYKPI
Chain of AMP-activated protein kinase (AMPK) alpha-1/beta-1/gamma-1 (Q13131 whole entry): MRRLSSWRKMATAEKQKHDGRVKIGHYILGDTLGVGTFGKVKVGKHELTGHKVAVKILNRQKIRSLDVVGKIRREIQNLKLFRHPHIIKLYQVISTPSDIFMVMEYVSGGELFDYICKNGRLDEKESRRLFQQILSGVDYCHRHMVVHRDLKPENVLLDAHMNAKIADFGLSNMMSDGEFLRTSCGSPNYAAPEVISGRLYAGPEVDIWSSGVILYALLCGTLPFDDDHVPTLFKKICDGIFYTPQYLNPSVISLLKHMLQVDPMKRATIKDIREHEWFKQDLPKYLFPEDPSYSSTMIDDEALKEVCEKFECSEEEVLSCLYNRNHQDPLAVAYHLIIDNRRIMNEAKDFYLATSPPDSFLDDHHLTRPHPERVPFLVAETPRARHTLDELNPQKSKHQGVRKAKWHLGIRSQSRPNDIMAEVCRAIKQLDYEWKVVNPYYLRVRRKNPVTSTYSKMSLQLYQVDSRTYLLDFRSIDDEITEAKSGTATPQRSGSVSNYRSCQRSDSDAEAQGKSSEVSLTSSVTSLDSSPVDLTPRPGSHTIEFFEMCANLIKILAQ

| Compound | EC50 [nM] |
| --- | --- |
| O=S(=O)(NCCOCCO)c1ccc(-c2ccc(-c3cc4nc(O[C@@H]5CO[C@H]6[C@@H]5OC[C@H]6O)[nH]c4cc3Cl)cc2)cc1 | 1.51 |
| O=C(NCC[N+]12CCN(CC1)CC2)c1ccc(-c2ccc(-c3cc4nc(O[C@@H]5CO[C@H]6[C@@H]5OC[C@H]6O)[nH]c4cc3Cl)cc2)cc1 | 0.76 |
| OCC(CO)NCc1ccc(-c2ccc(-c3cc4nc(O[C@@H]5CO[C@H]6[C@@H]5OC[C@H]6O)[nH]c4cc3Cl)cc2)cc1 | 1.08 |
| O=C(NCCC[N+]12CCN(CC1)CC2)c1ccc(-c2ccc(-c3cc4nc(O[C@@H]5CO[C@H]6[C@@H]5OC[C@H]6O)[nH]c4cc3Cl)cc2)cc1 | 0.96 |
